# Values quoted from earlier work as cited in US20020086849A1, “Method for introducing antisense oligonucleotides into eucaryotic cells” (priority 2000, published 2002).
# Settings: as described in U.S. Pat. No. 5,753,613
structure (smiles),measurement,value
"CCCCCCCCCCCCCCCCCC[N+](C)(C)CCCCCCCCCCCCCCCCCC.[Br-] [DDAB, dimethyldioctadecylammonium bromide]",transfection efficiency,poor transfection efficiency
